Reference: publication PMC11070402, “New antiproliferative 3-substituted oxindoles inhibiting EGFR/VEGFR-2 and tubulin polymerization” (Molecular Diversity, 2023)
Read-outs that look alike come from different tables or passages of the source.

Legend:
K-562 = experiment: NCI one-dose assay, K-562; assay type: cell-based; conditions: Homo sapiens, K562; K-562; 10 µM single dose, 48 h incubation; read-out: cell growth inhibition % (GI %)
Method: (§1) All novel scaffolds 6a–j were carefully selected by the National Cancer Institute (NCI), Bethesda, USA, to elucidate their cytotoxic activity versus 60 human cancer cell lines at 10 µM as a single-dose concentration after a 48 h incubation period.
(§2) National Cancer Institution selected all the synthesized 6a–j (NCI), Bethesda, USA, for in vitro one-dose antitumor assay. The methodology protocol for the NCI anticancer screening was reported in detail elsewhere (http://www.dtp.nci.nih.gov). The anticancer assay was performed in full NCI 60 cell lines extracted from nine tumor cell lines, including leukemia, melanoma, lung, colon, CNS, ovarian, renal, prostate, and breast cancer cell lines.

LOX IMVI = experiment: NCI one-dose assay, LOX IMVI; assay type: cell-based; conditions: Homo sapiens; LOX IMVI; 10 µM single dose, 48 h incubation; read-out: cell growth inhibition % (GI %)
Method: as §1, §2

MCF-7 = experiment: NCI one-dose assay, MCF-7; assay type: cell-based, human; conditions: MCF-7, 10 µM single dose, 48 h incubation
Method: as §1, §2

SR = experiment: NCI one-dose assay, SR; assay type: cell-based; conditions: Homo sapiens; SR; 10 µM single dose, 48 h incubation; read-out: cell growth inhibition % (GI %)
Method: as §1, §2

MOLT-4 = experiment: NCI one-dose assay, MOLT-4; assay type: cell-based; conditions: Homo sapiens; MOLT-4; 10 µM single dose, 48 h incubation; read-out: cell growth inhibition % (GI %)
Method: as §1, §2

UO-31 = experiment: NCI one-dose assay, UO-31; assay type: cell-based; conditions: Homo sapiens; UO-31; 10 µM single dose, 48 h incubation; read-out: cell growth inhibition % (GI %)
Method: as §1, §2

[1] = system: MCF-7 (human breast cancer); experiment: Cytotoxicity versus MCF-7 cell line (MTT assay); conditions: MCF7, read-out: MCF-7 (IC50 ± SD, uM)
Method: IC50 values were recorded using the Boltzman sigmoidal concentration–response curve equation using the nonlinear regression fitting models by GraphPad, Prism version 5 (GraphPad Software Inc., La Jolla, CA). MTT assay for MCF-7 cell lines. Cell line cells were obtained from American Type Culture Collection. Cells were cultured using DMEM media (Invitrogen/Life Technologies) supplemented with 10% FBS (Hyclone), 10 ug/ml of insulin (Sigma), and 1% penicillin–streptomycin. All the other chemicals and reagents were purchased from Sigma or Invitrogen. Cells were seeded in plates (cells density 1.2–1.8 × 10,000 cells/well) in a volume of 100 μl full-growth medium + 100 μl of the tested scaffold per well in a 96-well plate for 24 h before the application of the MTT assay protocol as reported, supplementary information.

[2] = system: SNB-75 cells (CNS cancer cell line); experiment: NCI one-dose assay, SNB-75; assay type: cell-based; conditions: Homo sapiens; SNB-75 (CNS Cancer), 10 uM single dose; read-out: Growth inhibition %
Method: as §1, §2

A549/ATCC = experiment: NCI one-dose assay, A549/ATCC; assay type: cell-based; conditions: Homo sapiens, 10 µM single dose, 48 h incubation, read-out: cell growth inhibition % (GI %)
Method: as §1, §2

T-47D = experiment: NCI one-dose assay, T-47D; assay type: cell-based; conditions: Homo sapiens, T47D; T-47D; 10 µM single dose, 48 h incubation; read-out: cell growth inhibition % (GI %)
Method: as §1, §2

SK-MEL-5 = experiment: NCI one-dose assay, SK-MEL-5; assay type: cell-based; conditions: Homo sapiens; SK-MEL-5; 10 µM single dose, 48 h incubation; read-out: cell growth inhibition % (GI %)
Method: as §1, §2

VEGFR-2 (KDR) = target: T1, VEGFR-2 (KDR) (Homo sapiens, UniProt P35968); experiment: VEGFR-2 kinase assay kit (Kinase-Glo MAX); assay type: biochemical
T1 construct: purchased
T1 sequence (P35968 20-1356): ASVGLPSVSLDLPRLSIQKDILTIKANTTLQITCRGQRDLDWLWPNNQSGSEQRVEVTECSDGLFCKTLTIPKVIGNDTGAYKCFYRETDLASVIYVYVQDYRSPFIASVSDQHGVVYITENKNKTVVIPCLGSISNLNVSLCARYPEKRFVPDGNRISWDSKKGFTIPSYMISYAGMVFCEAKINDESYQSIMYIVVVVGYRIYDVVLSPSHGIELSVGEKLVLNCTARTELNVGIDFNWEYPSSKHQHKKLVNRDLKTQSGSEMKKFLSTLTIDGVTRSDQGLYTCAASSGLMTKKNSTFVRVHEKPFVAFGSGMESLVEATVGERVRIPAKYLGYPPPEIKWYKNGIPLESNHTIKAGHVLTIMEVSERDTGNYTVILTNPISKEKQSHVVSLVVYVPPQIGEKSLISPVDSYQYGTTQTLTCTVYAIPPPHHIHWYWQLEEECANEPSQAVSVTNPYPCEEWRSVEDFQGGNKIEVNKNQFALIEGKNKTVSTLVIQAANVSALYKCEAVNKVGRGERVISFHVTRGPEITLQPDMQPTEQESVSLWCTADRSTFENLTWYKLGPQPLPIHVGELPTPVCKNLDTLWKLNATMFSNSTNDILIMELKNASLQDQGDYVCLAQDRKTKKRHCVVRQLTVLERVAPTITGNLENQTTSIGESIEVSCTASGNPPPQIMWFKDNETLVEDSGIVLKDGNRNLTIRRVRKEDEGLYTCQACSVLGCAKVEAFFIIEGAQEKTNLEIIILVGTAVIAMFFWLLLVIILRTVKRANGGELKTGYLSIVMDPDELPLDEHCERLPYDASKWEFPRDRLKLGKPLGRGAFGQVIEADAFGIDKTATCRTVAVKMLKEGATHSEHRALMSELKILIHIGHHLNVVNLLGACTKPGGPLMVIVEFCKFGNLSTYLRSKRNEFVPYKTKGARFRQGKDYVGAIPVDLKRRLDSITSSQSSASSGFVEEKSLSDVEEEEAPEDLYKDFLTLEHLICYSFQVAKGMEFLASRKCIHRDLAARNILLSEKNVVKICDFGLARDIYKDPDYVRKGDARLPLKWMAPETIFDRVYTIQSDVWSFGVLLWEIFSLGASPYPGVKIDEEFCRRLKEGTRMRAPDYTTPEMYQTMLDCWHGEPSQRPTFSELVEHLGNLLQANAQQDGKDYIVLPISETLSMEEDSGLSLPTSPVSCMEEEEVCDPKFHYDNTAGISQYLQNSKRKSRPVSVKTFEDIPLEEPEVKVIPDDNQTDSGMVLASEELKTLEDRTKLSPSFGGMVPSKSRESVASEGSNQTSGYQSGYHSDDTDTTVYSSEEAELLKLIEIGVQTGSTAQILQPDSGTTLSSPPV
Method: The receptor tyrosine kinases, namely EGFR, VEGFR-2, and PDGFR_ẞ Kinases Assay Kits, are designed to measure EGFR, VEGFR-2, and PDGFR_ẞ Kinases’ activities for screening and profiling applications using Kinase-Glo® MAX as a detection reagent. The EGFR, VEGFR-2, and PDGFR_ẞ Kinases Assay Kits come in a convenient 96-well format, with enough purified recombinant EGFR enzyme, EGFR substrate, ATP, and kinase assay buffer for 100 enzyme reactions. The master mixture (25 µl per well) was equipped out of Kinase assay buffer (6 µl), ATP (500 µM, 1 µl), PTK substrate (50x, 1 µl), and water (17 µl) and transferred into each well. […] EGFR, VEGFR-2, and PDGFR_ẞ Kinases were softened on ice. Its tube was spun briefly to recover its full content of the tube. These enzymes were diluted with 1 × Kinase assay buffer to 1 ng/ µl. The reaction was initiated by adding 20 µl of diluted EGFR, VEGFR-2, and PDGFR_ẞ enzymes to the wells designated “Positive Control” and “Test Inhibitor Control.” The plate was incubated at 30 °C for 40 min. After the 40-min reaction, the Kinase-Glo Max (50 µl) reagent was added to each well. The plate was covered with aluminum foil and incubated at room temperature for 15 min, and the luminescence was measured using the microplate reader.

[3] = system: HOP-92 (non-small cell lung cancer cell line); experiment: NCI one-dose assay, HOP-92; assay type: cell-based; conditions: Homo sapiens; HOP-92 (Non-Small Cell Lung Cancer), 10 uM single dose; read-out: Growth inhibition %
Method: as §1, §2

[4] = system: 60 human cancer cell lines; experiment: NCI one-dose assay against sixty NCI cancer cell lines; assay type: cell-based
Method: as §1, §2

NCI-H23 = experiment: NCI one-dose assay, NCI-H23; assay type: cell-based; conditions: Homo sapiens; NCI-H23; 10 µM single dose, 48 h incubation; read-out: cell growth inhibition % (GI %)
Method: as §1, §2

O=C1Nc2ccccc2C1=Cc1ccc(OCC(=O)c2ccc(Br)cc2)cc1 [Compound 6f, 3-{4-[2-(4-Bromophenyl)-2-oxoethoxy]benzylidene}indolin-2-one]
inhibition at 10 µM (K-562): 72.2%
inhibition at 10 µM (LOX IMVI): 71.1%
inhibition at 10 µM (MCF-7; Homo sapiens, MCF7, 48 h, read-out: cell growth inhibition % (GI %)): 72.6%
cell growth inhibition % (GI %) (MCF-7): 70.30%
inhibition at 10 µM (SR): 63.7%
inhibition at 10 µM (MOLT-4): 91.5%
inhibition at 10 µM (UO-31): 51.5%
IC50 [1]: 14.8 ± 0.47 µM
inhibition at 10 µM [2]: 20.4%
inhibition at 10 µM (A549/ATCC): 41.6%
inhibition at 10 µM (T-47D): 53%
inhibition at 10 µM (SK-MEL-5): 71.1%
%inh VEGFR-2 (VEGFR-2 (KDR); conc 0.01 (unit not given)): 12.36%
%inh VEGFR-2 (VEGFR-2 (KDR); conc 0.1 (unit not given)): 36.13%
%inh VEGFR-2 (VEGFR-2 (KDR); conc 1 (unit not given)): 73.94%
%inh VEGFR-2 (VEGFR-2 (KDR); conc 10 (unit not given)): 88.74%
IC50 (VEGFR-2 (KDR); read-out: VEGFR-2 inhibition (IC50 ± SD)): 5.75 ± 0.011 µM
inhibition at 10 µM [3]: 24.5%
inhibition at 10 µM ([4]; 786-0 (Renal Cancer), 10 uM single dose, read-out: Growth inhibition %): 10.2%
inhibition at 10 µM ([4]; ACHN (Renal Cancer), 10 uM single dose, read-out: Growth inhibition %): 30%
inhibition at 10 µM ([4]; BT-549 (Breast Cancer), 10 uM single dose, read-out: Growth inhibition %): 43.4%
inhibition at 10 µM ([4]; CAKI-1 (Renal Cancer), 10 uM single dose, read-out: Growth inhibition %): 32.2%
inhibition at 10 µM ([4]; CCRF-CEM (Leukemia), 10 uM single dose, read-out: Growth inhibition %): 41.8%
inhibition at 10 µM ([4]; COLO 205 (Colon Cancer), 10 uM single dose, read-out: Growth inhibition %): 34.1%
inhibition at 10 µM ([4]; DU-145 (Prostate Cancer), 10 uM single dose, read-out: Growth inhibition %): 14.4%
inhibition at 10 µM ([4]; EKVX (Non-Small Cell Lung Cancer), 10 uM single dose, read-out: Growth inhibition %): 34.4%
inhibition at 10 µM ([4]; HCC-2998 (Colon Cancer), 10 uM single dose, read-out: Growth inhibition %): 14.9%
inhibition at 10 µM ([4]; HCT-15 (Colon Cancer), 10 uM single dose, read-out: Growth inhibition %): 54.6%
inhibition at 10 µM ([4]; HCT-116 (Colon Cancer), 10 uM single dose, read-out: Growth inhibition %): 44.6%
inhibition at 10 µM ([4]; HL-60(TB) (Leukemia), 10 uM single dose, read-out: Growth inhibition %): 59.6%
inhibition at 10 µM ([4]; HS 578T (Breast Cancer), 10 uM single dose, read-out: Growth inhibition %): 15.6%
inhibition at 10 µM ([4]; HT-29, HT29 (Colon Cancer), 10 uM single dose, read-out: Growth inhibition %): 17.2%
inhibition at 10 µM ([4]; IGROV-1, IGROV1 (Ovarian Cancer), 10 uM single dose, read-out: Growth inhibition %): 21.7%
inhibition at 10 µM ([4]; KM12 (Colon Cancer), 10 uM single dose, read-out: Growth inhibition %): 22.7%
inhibition at 10 µM ([4]; M14 (Melanoma), 10 uM single dose, read-out: Growth inhibition %): 26.9%
inhibition at 10 µM ([4]; MALME-3M (Melanoma), 10 uM single dose, read-out: Growth inhibition %): 19%
inhibition at 10 µM ([4]; MDA-MB-231, read-out: Growth inhibition %): 17.8%
inhibition at 10 µM ([4]; MDA-MB-435 (Melanoma), 10 uM single dose, read-out: Growth inhibition %): 29.5%
inhibition at 10 µM ([4]; MDA-MB-468 (Breast Cancer), 10 uM single dose, read-out: Growth inhibition %): 47.6%
inhibition at 10 µM ([4]; NCI-H226 (Non-Small Cell Lung Cancer), 10 uM single dose, read-out: Growth inhibition %): 28.4%
inhibition at 10 µM ([4]; NCI-H322M (Non-Small Cell Lung Cancer), 10 uM single dose, read-out: Growth inhibition %): 12.5%
inhibition at 10 µM ([4]; NCI-H460 (Non-Small Cell Lung Cancer), 10 uM single dose, read-out: Growth inhibition %): 41.5%
inhibition at 10 µM ([4]; NCI-H522 (Non-Small Cell Lung Cancer), 10 uM single dose, read-out: Growth inhibition %): 38.6%
inhibition at 10 µM ([4]; OVCAR-3 (Ovarian Cancer), 10 uM single dose, read-out: Growth inhibition %): 22.5%
inhibition at 10 µM ([4]; OVCAR-4 (Ovarian Cancer), 10 uM single dose, read-out: Growth inhibition %): 41.8%
inhibition at 10 µM ([4]; OVCAR-8 (Ovarian Cancer), 10 uM single dose, read-out: Growth inhibition %): 30.4%
inhibition at 10 µM ([4]; PC-3 (Prostate Cancer), 10 uM single dose, read-out: Growth inhibition %): 37.6%
inhibition at 10 µM ([4]; RPMI-8226 (Leukemia), 10 uM single dose, read-out: Growth inhibition %): 50.8%
inhibition at 10 µM ([4]; RXF 393 (Renal Cancer), 10 uM single dose, read-out: Growth inhibition %): 32.4%
inhibition at 10 µM ([4]; SF-295 (CNS Cancer), 10 uM single dose, read-out: Growth inhibition %): 41.4%
inhibition at 10 µM ([4]; SF-539 (CNS Cancer), 10 uM single dose, read-out: Growth inhibition %): 18.5%
inhibition at 10 µM ([4]; SK-MEL-2 (Melanoma), 10 uM single dose, read-out: Growth inhibition %): 27.6%
inhibition at 10 µM ([4]; SK-MEL-28 (Melanoma), 10 uM single dose, read-out: Growth inhibition %): 19.9%
inhibition at 10 µM ([4]; SN12C (Renal Cancer), 10 uM single dose, read-out: Growth inhibition %): 37.3%
inhibition at 10 µM ([4]; SNB-19 (CNS Cancer), 10 uM single dose, read-out: Growth inhibition %): 20.4%
inhibition at 10 µM ([4]; SW-620 (Colon Cancer), 10 uM single dose, read-out: Growth inhibition %): 21.9%
inhibition at 10 µM ([4]; U-251, U251 (CNS Cancer), 10 uM single dose, read-out: Growth inhibition %): 28.5%
inhibition at 10 µM ([4]; UACC-62 (Melanoma), 10 uM single dose, read-out: Growth inhibition %): 47.4%
inhibition at 10 µM ([4]; UACC-257 (Melanoma), 10 uM single dose, read-out: Growth inhibition %): 26.4%
inhibition at 10 µM (NCI-H23): 49.1%
